Reference: US20110244049A1, “COMPOSITIONS COMPRISING 4-(2-(5-BROMO-4-(1-CYCLOPROPYLNAPHTHALEN-4-YL)-4H-1,2,4-TRIAZOL-3-YLTHIO)ACETAMIDO)-3-CHLOROBENZOIC ACID AND PHARMACEUTICALLY ACCEPTABLE SALTS THEREOF, AND METHODS FOR PREPARING AND USING SAME” (ARDEA BIOSCIENCES INC., priority 2008, published 2011)

Tested on: serum uric acid
Test: Serum uric acid levels on day 9 of the study (Example 6)
Format: in vivo, human
Method: Human clinical studies using the compositions described in examples 2A, 3A, 4A, 5A were conducted as described: A multi-center, double-blind, placebo-controlled study in 48 treatment-naïve HIV-1-infected subjects, randomized 3:1 (treatment:placebo). Patients were male, 18-65 years with chronic HIV infection, but no history of AIDS-defining illness. Patients were antiretroviral treatment naïve or <14 days prior therapy and had no pre-existing RTI or PI drug resistance and no co-infection with acute HAV, chronic HBV, active HCV. Patient CD4+ cell count was ≧50 cells/mm^3 for 2 cohorts, then ≧200 cells/mm^3 or ≧350 cells/mm^3 depending on site.
The compositions were administered over a 7-day treatment period plus one morning dose for PK purposes on day 8. (It should be noted that in some instances multiple doses of the same composition were administered, in order to achieve the required total dose of compound 1; i.e.in order to achieve a dose of 400 mg compound 1, a patient may have taken four 100 mg compositions or two 200 mg compositions, depending on the dosage form.) Four sequential dose cohorts were administered as follows:
Serum uric acid levels were recorded on day 9 of the study, and are shown in the table below and graphically in FIG. 8.

O=C(CSc1nnc(Br)n1-c1ccc(C2CC2)c2ccccc12)Nc1ccc(C(=O)O)cc1Cl [Compound 1, 4-(2-(5-bromo-4-(1-cyclopropylnaphthalen-4-yl)-4H-1,2,4-triazol-3-ylthio)acetamido)-3-chlorobenzoic acid]
Mean serum UA reduction (400 mg BID): −30%
Mean serum UA reduction (600 mg QD): −21%
Mean serum UA reduction (800 mg QD): −21%
Mean serum UA reduction (1000 mg QD): −28%
